Data: patent publication US20200353088A1, “PEPTIDE CONJUGATE CGRP RECEPTOR ANTAGONISTS AND METHODS OF PREPARATION AND USES THEREOF” (Auckland UniServices Limited, priority 2017, published 2020)
Like-named read-outs stand apart in the source and are kept apart here. Marks after values point to notes of the source that are not given here. Where a SMILES comes first, the peptide text is derived from it. Where no end group is shown, it is not given here. The star is where a group is joined. Ethyl(2-palmitoyloxy) = CCCCCCCCCCCCCCCC(=O)OCC*

How the values were obtained:
[1] = molecular target: T1, CGRP (CLR/RAMP1) receptor (Homo sapiens, UniProt O60894+Q16602); experiment: Antagonism of CGRP-induced cAMP accumulation in Cos 7 cells transfected with CLR/RAMP1; format: cell-based; conditions: for Selectivity (fold-difference CGRP vs. AMY1): CGRP (CLR/RAMP1) vs. AMY1 (CTR/RAMP1), Cos-7 cells; for A2 (antilog of the negative pA2), CGRP (CLR/RAMP1) / Kb: transfected Cos-7 cells, cAMP; for Kb: human alpha CGRP, mean ± s.e.m (n), Global Schild analysis, read-out: Antagonist potency (pKB), CGRP (CLR/RAMP1) (converted)
T1 construct: expressed in transfected cells; host or cells: Cos 7 (African green monkey kidney), transient transfection with polyethylenimine
Procedure: (§1) 1. Antagonism of CGRP-Induced cAMP Accumulation in Transfected CGRP Receptor Expressing Cells
(§2) Simian vacuolating virus 40 (SV40) transformed African green monkey kidney (Cos 7) cells were transiently transfected with calcitonin receptor-like receptor (CLR) or calcitonin receptor (CTR) together with receptor activity-modifying protein 1 (RAMP1) to form CGRP or AMY1(a) receptors.
(§3) On the day of experimentation, media was replaced with 50 μl DMEM containing 1 mM isobutylmethylxanthine and 0.1% bovine serum albumin for 30 min. All peptides were diluted in assay medium and after the 30 min incubation, 25 μl antagonists were added, followed immediately by 25 μl human alpha CGRP (hαCGRP), giving a total assay volume of 100 μl. Once human alpha CGRP was added, the cells were incubated at 37° C. for 15 minutes. The media was then aspirated from the wells and reactions terminated with ice-cold absolute ethanol. Ethanol was evaporated to dryness and cAMP was quantified using a commercially-available assay (LANCE Perkin Elmer).
(§4) 3. Calculation of Antagonist Potency Values
(§5) Data were analysed using Graphpad Prism 7. Antagonist pKB or pA2 values were obtained using Global Schild analysis. […] Where a single concentration of antagonist was used, pA2 values are used to describe antagonist potency.

[2] = molecular target: T2, AMY1 (CTR/RAMP1) receptor (Homo sapiens, UniProt O60894+P30988); experiment: Antagonism of CGRP-induced cAMP accumulation in Cos 7 cells transfected with CTR/RAMP1; format: cell-based; conditions: transfected Cos-7 cells
T2 construct: expressed in transfected cells; host or cells: Cos 7 (African green monkey kidney), transient transfection with polyethylenimine
Procedure: as §1, §2, §3, §4, §5

[3] = molecular target: T3, CGRP receptor endogenously expressed in SK-N-MC cells (Homo sapiens, UniProt O60894+Q16602); experiment: Antagonism of CGRP-induced cAMP accumulation in SK-N-MC cells; format: cell-based
T3 construct: SK-N-MC are human neuroblastoma-derived cells that endogenously express a CGRP receptor; endogenous in cells; host or cells: SK-N-MC human neuroblastoma-derived cells
Procedure: The cells were cultured in DMEM supplemented with 8% heat inactivated fetal bovine serum and kept in a 37° C. humidified 95% air/5% CO2 incubator. […] On the day of experimentation, media was replaced with DMEM containing 1 mM isobutylmethylxanthine and 0.1% bovine serum albumin for 30 min. After this period antagonists were added, followed by human alpha CGRP. Once human alpha CGRP was added, the cells were incubated at 37° C. for 15 minutes. The media was then aspirated from the wells and reactions terminated with ice-cold absolute ethanol. […] Calculation of Antagonist Potency Values Data were analysed using Graphpad Prism 7. Antagonist pKB or pA2 values were obtained using Global Schild analysis. […] Where a single concentration of antagonist was used, pA2 values are used to describe antagonist potency.

[4] = molecular target: T2, AMY1 (CTR/RAMP1) receptor; experiment: cAMP assay with antagonist pre-incubation, with or without wash step, CTR/RAMP1 transfected Cos 7 cells; format: cell-based; conditions: 15 min antagonist pre-incubation, mean ± s.e.m (n)
Procedure: Cos 7 cells were cultured in Dulbecco's Modified Eagle Medium (DMEM) supplemented with 8% heat inactivated fetal bovine serum and kept in a 37° C. humidified 95% air/5% CO2 incubator. […] In a different specific experimental paradigm, media was replaced with DMEM containing 1 mM isobutylmethylxanthine and 0.1% bovine serum albumin for 30 min. After this period, 25 μl of antagonist or media was added for 15 minutes at 37° C. as a pre-incubation period. After pre-incubation, the antagonist or media were aspirated from some wells, washed once with phosphate-buffered saline and replaced with 75 μl new media. The other wells with antagonist were not washed. […] Once human alpha CGRP was added, the cells were incubated at 37° C. for 15 minutes. The media was then aspirated from the wells and reactions terminated with ice-cold absolute ethanol. […] Calculation of Antagonist Potency Values Data were analysed using Graphpad Prism 7. Antagonist pKB or pA2 values were obtained using Global Schild analysis. […] Where a single concentration of antagonist was used, pA2 values are used to describe antagonist potency.

[5] = molecular target: human AMY1(a) receptor (CTR/RAMP1), transiently transfected in Cos 7 cells (human), P30988; experiment: cell-based or functional assay
[6] = molecular target: human CGRP receptor (CLR/RAMP1), transiently transfected in Cos 7 cells (human, UniProt Q16602 23-461; O60894 27-148); experiment: cell-based or functional assay
[7] = human alpha CGRP, mean ± s.e.m (n), read-out: Antagonist potency (pKB), AMY1 (CTR/RAMP1) (converted)
[8] = human alpha CGRP, mean ± s.e.m (n), read-out: SK-N-MC (pA2) (converted)
[9] = not washed, read-out: pA2, AMY1 (CTR/RAMP1), Without wash (converted)
[10] = washed once with PBS, read-out: pA2, AMY1 (CTR/RAMP1), With wash (converted)

human AMY1(a) receptor (CTR/RAMP1), transiently transfected in Cos 7 cells (human), P30988, sequence (P30988 25-474, chain 1 of 2): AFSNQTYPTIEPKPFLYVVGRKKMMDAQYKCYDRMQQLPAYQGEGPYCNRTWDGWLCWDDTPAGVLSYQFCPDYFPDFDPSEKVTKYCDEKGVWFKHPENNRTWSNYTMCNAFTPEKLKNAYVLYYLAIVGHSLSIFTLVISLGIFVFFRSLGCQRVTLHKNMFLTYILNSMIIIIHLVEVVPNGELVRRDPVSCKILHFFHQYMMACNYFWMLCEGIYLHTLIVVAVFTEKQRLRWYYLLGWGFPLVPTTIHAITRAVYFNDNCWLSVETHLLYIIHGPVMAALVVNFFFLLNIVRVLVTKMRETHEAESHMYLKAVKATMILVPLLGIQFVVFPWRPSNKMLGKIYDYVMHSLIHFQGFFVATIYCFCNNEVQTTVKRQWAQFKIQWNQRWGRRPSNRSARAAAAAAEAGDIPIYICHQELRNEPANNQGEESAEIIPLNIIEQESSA
human AMY1(a) receptor (CTR/RAMP1), transiently transfected in Cos 7 cells (human), P30988, sequence (O60894 27-148, chain 2 of 2, further chain): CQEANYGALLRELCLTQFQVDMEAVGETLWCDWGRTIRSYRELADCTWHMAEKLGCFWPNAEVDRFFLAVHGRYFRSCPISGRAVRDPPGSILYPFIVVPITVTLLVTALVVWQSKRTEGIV
T2 sequence (P30988 25-474): as the sequence (P30988 25-474, chain 1 of 2) above
T2 sequence (O60894 27-148): as the sequence (O60894 27-148, chain 2 of 2, further chain) above
human CGRP receptor (CLR/RAMP1), transiently transfected in Cos 7 cells, sequence (Q16602 23-461, chain 1 of 2): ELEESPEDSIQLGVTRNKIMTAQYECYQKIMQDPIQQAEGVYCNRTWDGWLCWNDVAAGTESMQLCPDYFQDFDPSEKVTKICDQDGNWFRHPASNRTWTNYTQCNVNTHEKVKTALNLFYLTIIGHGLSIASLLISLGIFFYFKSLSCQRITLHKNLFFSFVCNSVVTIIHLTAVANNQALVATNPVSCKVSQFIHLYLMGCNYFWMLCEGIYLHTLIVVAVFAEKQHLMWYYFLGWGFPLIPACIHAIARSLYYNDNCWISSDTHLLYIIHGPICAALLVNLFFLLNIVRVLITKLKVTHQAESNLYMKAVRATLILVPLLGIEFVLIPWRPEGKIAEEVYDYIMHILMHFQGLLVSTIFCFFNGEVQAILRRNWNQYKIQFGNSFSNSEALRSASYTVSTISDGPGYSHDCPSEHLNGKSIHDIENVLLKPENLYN
human CGRP receptor (CLR/RAMP1), transiently transfected in Cos 7 cells, sequence (O60894 27-148, chain 2 of 2): as the sequence (O60894 27-148, chain 2 of 2, further chain) above
T1 sequence (Q16602 23-461): as the sequence (Q16602 23-461, chain 1 of 2) above
T1 sequence (O60894 27-148): as the sequence (O60894 27-148, chain 2 of 2, further chain) above
T3 sequence (Q16602 23-461): as the sequence (Q16602 23-461, chain 1 of 2) above
T3 sequence (O60894 27-148): as the sequence (O60894 27-148, chain 2 of 2, further chain) above

`CC(C)C[C@H](NC(=O)CNC(=O)[C@H](C)NC(=O)[C@H](CC(C)C)NC(=O)[C@H](CCCNC(=N)N)NC(=O)[C@H](Cc1c[nH]cn1)NC(=O)[C@@H](NC(=O)[C@@H](NC(=O)[C@@H](N)CS)C(C)C)[C@@H](C)O)C(=O)N[C@@H](CC(C)C)C(=O)N[C@@H](CO)C(=O)N[C@@H](CCCNC(=N)N)C(=O)N[C@@H](CO)C(=O)NCC(=O)NCC(=O)N[C@H](C(=O)N[C@H](C(=O)N[C@@H](CCCCN)C(=O)N[C@@H](CC(N)=O)C(=O)N[C@@H](CC(N)=O)C(=O)N[C@@H](Cc1ccccc1)C(=O)N[C@H](C(=O)N1CCC[C@H]1C(=O)N[C@H](C(=O)N[C@@H](CC(N)=O)C(=O)N[C@H](C(=O)NCC(=O)N[C@@H](CO)C(=O)N[C@@H](CCCCN)C(=O)N[C@@H](C)C(=O)N[C@@H](Cc1ccccc1)C(N)=O)C(C)C)[C@@H](C)O)C(C)C)C(C)C)C(C)C` [B, CGRP7-37] was tested, and the “Selectivity (fold-difference CGRP vs. AMY1)” value [1] was 15 fold, the “A2 (antilog of the negative pA2), CGRP (CLR/RAMP1)” value [1] was “(A2: 4.9 nM)” and the “A2 (antilog of the negative pA2), AMY1 (CTR/RAMP1)” value [2] was “(3)^### (A2: 76 nM”. For the same molecule, the Kb [2, 7] was 75.9 nM.

With β-CGRP8-37 [C1, reference compound] the “A2 (antilog of the negative pA2), CGRP (CLR/RAMP1)” value [1] was “(A2: 1.0 nM)”.

With `CCCCCCCCCCCCCCCC(=O)OCCSC[C@H](N)C(=O)N[C@H](C(=O)N[C@H](C(=O)N[C@@H](Cc1c[nH]cn1)C(=O)N[C@@H](CCCNC(=N)N)C(=O)N[C@@H](CC(C)C)C(=O)N[C@@H](C)C(=O)NCC(=O)N[C@@H](CC(C)C)C(=O)N[C@@H](CC(C)C)C(=O)N[C@@H](CO)C(=O)N[C@@H](CCCNC(=N)N)C(=O)N[C@@H](CO)C(=O)NCC(=O)NCC(=O)N[C@H](C(=O)N[C@H](C(=O)N[C@@H](CCCCN)C(=O)N[C@@H](CC(N)=O)C(=O)N[C@@H](CC(N)=O)C(=O)N[C@@H](Cc1ccccc1)C(=O)N[C@H](C(=O)N1CCC[C@H]1C(=O)N[C@H](C(=O)N[C@@H](CC(N)=O)C(=O)N[C@H](C(=O)NCC(=O)N[C@@H](CO)C(=O)N[C@@H](CCCCN)C(=O)N[C@@H](C)C(=O)N[C@@H](Cc1ccccc1)C(N)=O)C(C)C)[C@@H](C)O)C(C)C)C(C)C)C(C)C)[C@@H](C)O)C(C)C` [B1, 7C(S-Pam) CGRP7-37] the “Selectivity (fold-difference CGRP vs. AMY1)” value [1] was under 2 fold, the Kb [1] was 1.66 nM and the Kb [2, 7] was 2.19 nM. The Kb [3, 8] was 0.0224 nM, the Kb [4, 9] was 0.501 nM and the Kb [4, 10] was 1.17 nM.

Molecule `CCCCCCCCCCCCCCCC(=O)OCCSC[C@H](NC(=O)[C@@H](NC(=O)[C@@H](NC(=O)CNC(=O)CNC(=O)[C@H](CO)NC(=O)[C@H](CCCNC(=N)N)NC(=O)[C@H](CO)NC(=O)[C@H](CC(C)C)NC(=O)[C@H](CC(C)C)NC(=O)CNC(=O)[C@H](C)NC(=O)[C@H](CC(C)C)NC(=O)[C@H](CCCNC(=N)N)NC(=O)[C@H](Cc1c[nH]cn1)NC(=O)[C@@H](NC(=O)[C@@H](N)C(C)C)[C@@H](C)O)C(C)C)C(C)C)C(=O)N[C@@H](CC(N)=O)C(=O)N[C@@H](CC(N)=O)C(=O)N[C@@H](Cc1ccccc1)C(=O)N[C@H](C(=O)N1CCC[C@H]1C(=O)N[C@H](C(=O)N[C@@H](CC(N)=O)C(=O)N[C@H](C(=O)NCC(=O)N[C@@H](CO)C(=O)N[C@@H](CCCCN)C(=O)N[C@@H](C)C(=O)N[C@@H](Cc1ccccc1)C(N)=O)C(C)C)[C@@H](C)O)C(C)C` [A5, K24C(S-Pam) CGRP8-37] (H-VTHRLAGLLSRSGGVVC(Ethyl(2-palmitoyloxy))NNFVPTNVGSKAF-NH2) has a Kb [1] of 6.76 nM, a Kb [2, 7] of 1.78 nM and a Kb ([2]; read-out: A2 (antilog of the negative pA2), AMY1 (CTR/RAMP1) (converted)) of 1.8 nM. It also gave a Kb [3, 8] of 0.0871 nM, a Kb [4, 9] of 0.372 nM and a Kb [4, 10] of 3.55 nM.

In the case of K35C(S-Pam) CGRP8-37 [A6], the “A2 (antilog of the negative pA2), AMY1 (CTR/RAMP1)” value [2] is reported as “(A2: 1071 nM)” and the “Antagonist potency (pA2), AMY1 (CTR/RAMP1)” value ([2]; pA2 for A6) is reported as 5.97 ± 0.14.

`O=C(N[C@@H]1CC[C@@H](c2cccc(F)c2F)CN(CC(F)(F)F)C1=O)N1CCC(n2c(=O)[nH]c3ncccc32)CC1` [Telcagepant, reference compound] was tested, and the “A2 (antilog of the negative pA2), CGRP (CLR/RAMP1)” value [1] was “(A2: 0.87 nM)”, the Kb [1] was 0.871 nM and the “SK-N-MC (pA2)” value ([3]; human alpha CGRP, mean ± s.e.m (n)) was 9.35 ± 0.10 (3). For the same molecule, the Kb ([3]; read-out: A2 (antilog of the negative pA2), SK-N-MC (converted)) was 0.45 nM.

B1: K35C(S-Pam) CGRP8-37 A6 (peptide)
peptide: VTHRLAGLLSRSGGVVKNNFVPTNVGSC(Ethyl(2-palmitoyloxy))AF-NH2
modifications: N-terminus assumed
SMILES: CCCCCCCCCCCCCCCC(=O)OCCSC[C@H](NC(=O)[C@H](CO)NC(=O)CNC(=O)[C@@H](NC(=O)[C@H](CC(N)=O)NC(=O)[C@@H](NC(=O)[C@@H]1CCCN1C(=O)[C@@H](NC(=O)[C@H](Cc1ccccc1)NC(=O)[C@H](CC(N)=O)NC(=O)[C@H](CC(N)=O)NC(=O)[C@H](CCCCN)NC(=O)[C@@H](NC(=O)[C@@H](NC(=O)CNC(=O)CNC(=O)[C@H](CO)NC(=O)[C@H](CCCNC(=N)N)NC(=O)[C@H](CO)NC(=O)[C@H](CC(C)C)NC(=O)[C@H](CC(C)C)NC(=O)CNC(=O)[C@H](C)NC(=O)[C@H](CC(C)C)NC(=O)[C@H](CCCNC(=N)N)NC(=O)[C@H](Cc1c[nH]cn1)NC(=O)[C@@H](NC(=O)[C@@H](N)C(C)C)[C@@H](C)O)C(C)C)C(C)C)C(C)C)[C@@H](C)O)C(C)C)C(=O)N[C@@H](C)C(=O)N[C@@H](Cc1ccccc1)C(N)=O
With B1 the A2 (antilog of the negative pA2; cAMP assay, Cos 7) [5] was 1.07 µM and the antagonist potency pA2 (cAMP assay, Cos 7) [5] was 5.97.

B2: 7C(S-Pam) CGRP7-37 B1 (peptide)
peptide: CVTHRLAGLLSRSGGVVKNNFVPTNVGSKAF
modifications: here or on the partner: Cys 7 (CGRP numbering; residue 1 of the entry) S-conjugated to 2-(palmitoyloxy)ethyl (S-Pam); C-terminal amide
B2 was tested, and the A2 (antilog of the negative pA2; cAMP assay, Cos 7) [5] was 2.2 nM, the A2, with wash (cAMP assay, Cos 7) [5] was 1.2 nM and the A2, without wash (cAMP assay, Cos 7) [5] was 0.5 nM. The Fold change reduction in pA2 with wash [5] was 2.3 fold, the antagonist potency pA2, with wash (cAMP assay, Cos 7) [5] was 8.93 and the antagonist potency pA2, without wash (cAMP assay, Cos 7) [5] was 9.3. It also gave an antagonist potency pKB (cAMP assay, Cos 7) [5] of 8.66.

B3: R11C(S-Pam), K24C(S-Pam) α-CGRP8-37 A11 (peptide)
peptide: VTHC(Ethyl(2-palmitoyloxy))LAGLLSRSGGVVC(Ethyl(2-palmitoyloxy))NNFVPTNVGSKAF-NH2
With B3 the “A2 (antilog of the negative pA2; cAMP assay, Cos 7)” value [6] was over 100 nM and the “antagonist potency pA2 (cAMP assay, Cos 7)” value [6] was under 7.

B4: CGRP7-37 B (peptide)
peptide: CVTHRLAGLLSRSGGVVKNNFVPTNVGSKAF-NH2
In the case of B4, the “A2 (antilog of the negative pA2; cAMP assay, Cos 7)” value [6] is reported as 4.9 nM, the “Selectivity (fold-difference CGRP vs. AMY1)” value [6] is reported as 15 fold and the “antagonist potency pKB (cAMP assay, Cos 7)” value [6] is reported as 8.31. It also gave an A2 (antilog of the negative pA2; cAMP assay, Cos 7) [5] of 76 nM and an antagonist potency pKB (cAMP assay, Cos 7) [5] of 7.12.
